# Like-named read-outs stand apart in the source and are kept apart here.
# Assays:
# RMCE in platelets = settings: Merritt, et al.; cited from earlier work
# [1] = tested on: voltage-gated L-type calcium channels in vascular smooth muscle cells; settings: patch clamp; Merritt, et al.; cited from earlier work
# [2] = tested on: RMCE in endothelial cells; settings: Merritt, et al.; cited from earlier work
# RMCE in neutrophils = settings: Merritt, et al.; cited from earlier work
# A2058 cells [3] = test: Proliferation of A2058 cells (monolayer growth, crystal violet); type: cell-based, human; settings: for activity at 10 µM: Homo sapiens, read-out: GROWTH (% OF CONTROL)
# Procedure: For the clonogenic assay, aliquots of 50,000 cells per well (24 well plates) were grown under standard tissue culture conditions in the presence of increasing doses or test compound (0-10 μg/mL) or vehicle control. After 96 hr, the cells were gently washed with PBS, fixed, and stained with 0.5% crystal violet nuclear stain in 20% methanol. Excess stain was removed with tap water and bound stain was eluted with an equal volume solution of 01N sodium citrate (pH 4.2) and absolute ethanol. Optical density (O.D.) of eluted crystal violet stain was determined at 540 nm. The results of dose-dependent inhibition of tumor cell proliferation by compound 1 are shown in FIG. 5, in which the data are expressed as percent of untreated control cell proliferation for each cell type. The degree of inhibition varied with the cell type and was maximal (76%) for the A2058 cell line.
# A2058 human melanoma cells were used to test the effect of compounds 1 and 3-25 on cellular proliferation. The cells were cultured in the presence of the test compounds (10 μM) for 96 hr. fixed and stained with crystal violet as described above. Growth inhibition was determined as a percent of control growth (using either DMSO or PEG-400 as the vehicle) for each compound. Each experiment was run a minimum of three times and the average of the results for each compound is provided in Table H and in FIGS. 20A and 20B.
# A2058 cells [4] = test: Colony formation (soft agar); type: cell-based, human; settings: for COLONY FORMATION (% OF CONTROL): Table H, soft agar; for Colony Formation (% of Control): Table K
# Procedure: Colony formation: Compound 1 was evaluated at three concentrations for inhibition of colony formation in both the A2058 and OVCAR3 cell lines. Colony number was determined in triplicate and compared to the vehicle control run on each 24 well plate to provide a percent. Colonies greater than 60 cells were counted at 100× under phase contrast. […] In a second study, selected compounds were evaluated for their effect on density-independent growth of the A2058 cell line in soft agar. Percent inhibition was determined over triplicate experiments involving three log molar concentrations of the test compound.
# CHOm5 cells [5] = test: Carbachol-stimulated arachidonic acid release; type: cell-based, Chinese hamster; settings: Table K
# Excerpt: This example illustrates the effect of selected compounds on the release of arachidonic acid from carbachol-stimulated CHOm5 cells. Carbachol is a muscarinic agonist which in the muscarinic receptor transfected CHO cells stimulates the activation of phospholipase A2, resulting in arachidonic acid release and metabolism. Downstream metabolites of arachidonic acid, prostaglandins and leukotrienes are also second messengers.
# The effect of compound 1 on arachidonic acid release from CHOm5 cells was determined by incubating the cells to isotopic equilibrium with labelled arachidonic acid, then washing the cells twice with 1 mL of serum-free media supplemented with 20 mM HEPES and 0.2% bovine serum albumin (fatty acid free) to trap the unincorporated labelled arachidonic acid, and then simultaneously adding carbachol (100 μM) and increasing concentrations of 1. After 15 min, the reaction was stopped by removing the incubation media which was then centrifuged at 10,000×g to eliminate any nonadherent cells.
# CHOm5 cells [6] = test: Carbachol-stimulated 45Ca2+ influx; type: cell-based, Chinese hamster; set-up: % Inhibition of 45Ca2+ Influx into CHOm5 Cells: concentration or dose not given beside the values; settings: Table I; carbachol-stimulated
# Procedure: Calcium influx was determined using two methods. The first method involved the use of ^45 Ca^2+, while the second method utilized a fluorescent intracellular calcium chelator, Fura-2. The method using Fura-2 is semi-quantitative and is preferred for kinetic analysis and screening whereas the ^45 Ca^2+ method is quantitative.
# CHOm5 cells in monolayer culture were washed free of serum-containing media and incubated with either carbachol or the calcium ionophore A23187 (from Molecular Probes, Eugene, Oreg., USA) in the presence of ^45 Ca^2+ and defined buffer (E2 medium with 0.1 mM MgCl2 and 1.0 mM CaCl2). After incubation for 5 min, the radioactive buffer was rapidly and repeatedly washed off with media containing LaCl3, a competitor of calcium efflux. The cell monolayer was solubilized and the calcium uptake was determined by scintillation counting.
# Stimulated uptake of radiolabelled calcium was measured as described above. The abbreviations CTL and CC are control and carbachol-stimulated calcium influx values. respectively.
# [7] = tested on: A2058 human melanoma cells; test: AMF-stimulated cell motility; type: cell-based; settings: PT, 0.5 μg/ml for 2 hr
# Procedure: (§1) The cell motility assay has been described. See, Stracke et al., Biochem. Biophys. Res. Comm., 146:339-345 (1987). Cells from the A2058 human melanoma line which was maintained in subconfluent culture were harvested with trypsin-EDTA, and were allowed to recover for 1 hr at room temperature. Cells from the 5R H-ras transformed (diploid) rat embryo fibroblast line were harvested with 2 mM EDTA in PBS without divalent cations. Cells were resuspended in serum-free media containing 0.1% BSA. This DMEM/0.1% BSA was used as the control for all subsequent assays. The assays were performed in triplicate using a 48-well chemotaxis chamber with 8μ Nucleopore, type IV collagen-coated filters. The chambers were incubated at 37° C. for 4 hr, stained and placed onto glass slides with the original cell side up so that the cell pellet could be wiped from the surface. Cells that had migrated through the pores were trapped between glass and membrane and could be quantitated by laser densitometry.
# (§2) Compound 1 was preincubated with the cells for various periods of time, added at the start of the assay, or added later. Additionally, compound 1 remained present during the motility assay. The cells were assayed for their motile response to AMF. AMF stimulates random and directed locomotion of 5R ras-transfected rat embryo fibroblasts and A2058 human melanoma cells. […] Cell viability determined by trypan blue exclusion averaged greater than 96%. Cells exposed to various concentrations of compound 1 were tested for their response to AMF vs. control. Percent stimulated motility (in densitometer units) is defined as: […]
# (§3) (AMF stimulated-control)Compound 1 /(AMF stimulated-control)untreated
# [8] = tested on: 5R ras-transfected rat embryo fibroblasts; test: AMF-stimulated cell motility; type: cell-based; settings: PT, 0.5 μg/ml for 2 hr
# Procedure: as §1, §2, §3
Compound,"activity at 10 µM (A2058 cells [3]; A2058, Table H, 10 μM, 96 hr) [%]",COLONY FORMATION (% OF CONTROL) (A2058 cells [4]),also measured
COc1ccc(CCCOC(Cn2ccnc2)c2ccc(OC)cc2)cc1 (centres unmarked) [Compound 2],–,–,inhibition of RMCE (RMCE in platelets): inhibits RMCE; block of voltage-gated L-type calcium channels [1]: blocks; inhibition of RMCE [2]: inhibits RMCE; inhibition of RMCE (RMCE in neutrophils): inhibits RMCE
NC(=O)c1nnn(Cc2cc(Cl)c(C(=O)c3ccc(Cl)cc3)c(Cl)c2)c1NC=O [Compound 3],31.5 ± 7,10.2 ± 0.5,"dose dependent inhibition of proliferation (A2058 cells [3]; FIG. 20A, monolayer growth): Dose dependent inhibition of proliferation; Colony Formation (% of Control) (A2058 cells [4]): 10.2 ± 0.5 % of Control; Arachidonic Acid Release (% of Control) (CHOm5 cells [5]): 13.1 ± 3 % of Control; % Inhibition of 45Ca2+ Influx into CHOm5 Cells (CHOm5 cells [6]): 60%"
CC(=O)Nc1c(C(N)=O)nnn1Cc1cc(Cl)c(C(=O)c2ccc(Cl)cc2)c(Cl)c1 [Compound 4],53.7 ± 15,10.3 ± 0.4,Colony Formation (% of Control) (A2058 cells [4]): 10.3 ± 0.4 % of Control; Arachidonic Acid Release (% of Control) (CHOm5 cells [5]): 73.8 ± 5.9 % of Control; % Inhibition of 45Ca2+ Influx into CHOm5 Cells (CHOm5 cells [6]): 41%
NC(=O)c1nnn(Cc2cc(Cl)c(C(=O)c3ccc(Cl)cc3)c(Cl)c2)c1NC(=O)c1ccccc1 [Compound 5],39 ± 2,9.97 ± 1,Colony Formation (% of Control) (A2058 cells [4]): 9.97 ± 1 % of Control; Arachidonic Acid Release (% of Control) (CHOm5 cells [5]): 49.2 ± 12 % of Control; % Inhibition of 45Ca2+ Influx into CHOm5 Cells (CHOm5 cells [6]): 61%
Nc1c(C(=O)O)nnn1Cc1cc(Cl)c(C(=O)c2ccc(Cl)cc2)c(Cl)c1 [Compound 6],45.3 ± 11,9.00 ± 1,Colony Formation (% of Control) (A2058 cells [4]): 9.00 ± 1 % of Control; Arachidonic Acid Release (% of Control) (CHOm5 cells [5]): 49.6 ± 5 % of Control; % Inhibition of 45Ca2+ Influx into CHOm5 Cells (CHOm5 cells [6]): 38%
O=C(c1ccc(Cl)cc1)c1c(Cl)cc(Cn2ccnc2)cc1Cl [Compound 7],66.5 ± 9,–,Arachidonic Acid Release (% of Control) (CHOm5 cells [5]): 92.6 ± 7 % of Control
NC(=O)c1nc[nH]c1N [Compound 9],97 ± 3,–,–
O=C(O)c1nn[nH]c1C(=O)O [Compound 10],92.2 ± 4,100 ± 3,–
NC(=O)c1nnn(Cc2cccc(F)c2)c1N [Compound 11],89 ± 3,–,–
NC(=O)c1nnn(Cc2cccc(Cl)c2)c1N [Compound 12],85 ± 2,–,–
NC(=O)c1nnn(Cc2cccc(Br)c2)c1N [Compound 13],85.5 ± 13,–,–
NC(=O)c1nnn(Cc2cccc(I)c2)c1N [Compound 14],89 ± 6,–,–
NC(=O)c1nnn(Cc2cc(Cl)cc(Cl)c2)c1N [Compound 15],–,–,% Inhibition of 45Ca2+ Influx into CHOm5 Cells (CHOm5 cells [6]): 0%
NC(=O)c1nnn(Cc2cc(F)cc(F)c2)c1N [Compound 16],111 ± 8,–,–
O=C(c1ccccc1)c1ccccc1 [Compound 17],–,95.9 ± 3,"activity at 10 µM (A2058 cells [3]; A2058, 96 h): 98.5 ± 5%"
O=C(c1ccccc1)c1ccc(F)cc1 [Compound 18],94 ± 2,93.0 ± 3.7,–
O=C(c1ccccc1)c1ccc(Cl)cc1 [Compound 19],110 ± 12,94.3 ± 3.1,–
O=C(c1ccccc1)c1ccc(Br)cc1 [Compound 20],97 ± 24,95.0 ± 1.4,–
O=C(c1ccccc1)c1ccccc1Cl [Compound 21],123 ± 5,100 ± 5,–
O=C(c1ccc(F)cc1)c1ccccc1Cl [Compound 23],101 ± 0.5,97.8 ± 5,–
O=C(c1ccc(F)cc1)c1ccccc1F [Compound 24],82 ± 7,–,–
O=C(c1ccccc1O)c1ccccc1O [Compound 25],98 ± 7,95.3 ± 2,–
O=C(c1ccc(Cl)cc1)c1c(Cl)cc(CO)cc1Cl [Compound 26],101 ± 11,100.3 ± 1.2,% Inhibition of 45Ca2+ Influx into CHOm5 Cells (CHOm5 cells [6]): ~ 10%
pertussis toxin [reference compound],–,–,inhibition of AMF-stimulated motility by pertussis toxin [7]: markedly inhibited; inhibition of AMF-stimulated motility by pertussis toxin [8]: markedly inhibited

# Source: US5482954A, “Signal transduction inhibitor triazole and diazole compounds” (priority 1994, dated 1996)
